According to patent publication US10689370B2, “Cyclopropane carboxamide modulators of cystic fibrosis transmembrane conductance regulator” (Auspex Pharmaceuticals, Inc., priority 2014, dated 2020):

Test: In vitro human liver microsomal stability assay
Format: in vitro ADME
Details: human liver microsomes 2 mg per mL protein, NADPH-generating system, 1 uM test compound, 37 °C, 0-240 min; for half-life % change over d0: degradation half-life relative to non-deuterated d0 (Example 1); for Clearance % change over d0: relative to non-deuterated d0 (Example 1)
Experimental: In Vitro Liver Microsomal Stability Assay
Human liver microsomal stability assays were conducted at 2 mg per mL liver microsome protein with an NADPH-generating system consisting of NADP (1 mM, pH 7.4), glucose 6-phosphate (5 mM, pH 7.4) and glucose 6-phosphate dehydrogenase (I unit/mL). Test compounds were prepared as solutions in DMSO and added to the assay mixture (1 uM, final concentration in incubation) and incubated at 37±1° C. Reactions were initiated with addition of the test compounds and stopped at 0, 60, 120 or 240 min after test article addition with stop reagent, acetonitrile. Samples were centrifuged (920×g for 10 min at 10° C.) in 96-well plates. Supernatant fractions were analyzed by LC-MS/MS to determine the percent remaining and estimate the degradation half-life of the test compounds.

| half-life % change over d0 [%] | Clearance % change over d0 [%] | SMILES |
| --- | --- | --- |
| 200.0 | −66.7 | [2H]C([2H])(O)C(C)(C)c1cc2cc(NC(=O)C3(c4ccc5c(c4)OC(F)(F)O5)CC3)c(F)cc2n1C[C@@H](O)CO [Example 2] |
| 4.8 | −4.8 | [2H]C([2H])(O)[C@H](O)Cn1c(C(C)(C)CO)cc2cc(NC(=O)C3(c4ccc5c(c4)OC(F)(F)O5)CC3)c(F)cc21 [Example 8, (R)1-(2,2-difluoro-2H-1,3-benzodioxol-5-yl)-N-[1-[2,3-dihydroxy(3,3-^2H2)propyl]-6-fluoro-2-(1-hydroxy-2-methylpropan-2-yl)-1H-indol-5-yl]cyclopropane-1-carboxamide] |
| 13.3 | −11.9 | [2H]C([2H])([2H])C(CO)(c1cc2cc(NC(=O)C3(c4ccc5c(c4)OC(F)(F)O5)CC3)c(F)cc2n1C[C@@H](O)CO)C([2H])([2H])[2H] [Example 3, 1-(2,2-difluoro-2H-1,3-benzodioxol-5-yl)-N-[1-[(2R)-2,3-dihydroxypropyl]-6-fluoro-2-[1-hydroxy-2-methyl(^2H6)propan-2-yl]-1H-indol-5-yl]cyclopropane-1-carboxamide] |
| 281.8 | −73.8 | [2H]C([2H])(O)C(C)(C)c1cc2cc(NC(=O)C3(c4ccc5c(c4)OC(F)(F)O5)C([2H])([2H])C3([2H])[2H])c(F)cc2n1C[C@@H](O)CO [Example 6] |
| 4.8 | −4.8 | [2H]C([2H])(O)[C@]([2H])(O)Cn1c(C(C)(C)CO)cc2cc(NC(=O)C3(c4ccc5c(c4)OC(F)(F)O5)CC3)c(F)cc21 [Example 4, (R)1-(2,2-difluoro-2H-1,3-benzodioxol-5-yl)-N-[1-[2,3-dihydroxy(2,3,3-^2H3)propyl]-6-fluoro-2-(1-hydroxy-2-methylpropan-2-yl)-1H-indol-5-yl]cyclopropane-1-carboxamide] |
| 250.3 | −71.4 | [2H]C([2H])(O)C(C)(C)c1cc2cc(NC(=O)C3(c4ccc5c(c4)OC(F)(F)O5)CC3)c(F)cc2n1C[C@@]([2H])(O)C([2H])([2H])O [Example 5, (R)1-(2,2-difluoro-2H-1,3-benzodioxol-5-yl)-N-[1-[2,3-dihydroxy(2,3,3-^2H3)propyl]-6-fluoro-2-(1-hydroxy-2-methyl(1,1-^2H2)propan-2-yl)-1H-indol-5-yl]cyclopropane-1-carboxamide] |
| 0.0 | 0.0 | CC(C)(CO)c1cc2cc(NC(=O)C3(c4ccc5c(c4)OC(F)(F)O5)CC3)c(F)cc2n1C[C@@H](O)CO [Example 1, (R)-1-(2,2-difluorobenzo[d][1,3]dioxol-5-yl)-N-(1-(2,3-dihydroxypropyl)-6-fluoro-2-(1-hydroxy-2-methylpropan-2-yl)-1H-indol-5-yl)cyclopropanecarboxamide, reference compound] |
| −4.2 | 4.8 | [2H]C([2H])([2H])C(CO)(c1cc2cc(NC(=O)C3(c4ccc5c(c4)OC(F)(F)O5)C([2H])([2H])C3([2H])[2H])c(F)cc2n1C[C@@H](O)CO)C([2H])([2H])[2H] [Example 7, (R)-1-(2,2-difluorobenzo[d][1,3]dioxol-5-yl)-N-(1-(2,3-dihydroxypropyl)-6-fluoro-2-(1-hydroxy-2-methyl(^2H6)propan-2-yl)-1H-indol-5-yl)(^2H4)cyclopropanecarboxamide] |
